According to ChEMBL document CHEMBL6092176, “Discovery of pyrazolo[1,5-a]pyrimidine derivatives targeting TLR4-TLR4∗ homodimerization via AI-powered next-generation screening” (Eur J Med Chem, 2024):
pIC50: −log10 of the molar value. Several values for one entry are separate records, joined by “and”; a condition that tells them apart may be missing. Equal entries are not always repeated. Activity calls are given as the source filed them. No cut-off for these calls is given here.

Experiments:
[1] = Inhibition of TLR4 to MD2 (unknown origin) protein-protein interaction; set-up: species or system Homo sapiens
[2] = molecular target: T1, Toll-like receptor 4 (Homo sapiens, UniProt O00206); assay: Inhibition of human TLR4 in LPS-stimulated HEK-Blue hTLR4 cells assessed as reduction in SEAP activity incubated for 24 hrs by microplate reader assay; assay type: cell-based
T1 sequence (O00206 whole entry): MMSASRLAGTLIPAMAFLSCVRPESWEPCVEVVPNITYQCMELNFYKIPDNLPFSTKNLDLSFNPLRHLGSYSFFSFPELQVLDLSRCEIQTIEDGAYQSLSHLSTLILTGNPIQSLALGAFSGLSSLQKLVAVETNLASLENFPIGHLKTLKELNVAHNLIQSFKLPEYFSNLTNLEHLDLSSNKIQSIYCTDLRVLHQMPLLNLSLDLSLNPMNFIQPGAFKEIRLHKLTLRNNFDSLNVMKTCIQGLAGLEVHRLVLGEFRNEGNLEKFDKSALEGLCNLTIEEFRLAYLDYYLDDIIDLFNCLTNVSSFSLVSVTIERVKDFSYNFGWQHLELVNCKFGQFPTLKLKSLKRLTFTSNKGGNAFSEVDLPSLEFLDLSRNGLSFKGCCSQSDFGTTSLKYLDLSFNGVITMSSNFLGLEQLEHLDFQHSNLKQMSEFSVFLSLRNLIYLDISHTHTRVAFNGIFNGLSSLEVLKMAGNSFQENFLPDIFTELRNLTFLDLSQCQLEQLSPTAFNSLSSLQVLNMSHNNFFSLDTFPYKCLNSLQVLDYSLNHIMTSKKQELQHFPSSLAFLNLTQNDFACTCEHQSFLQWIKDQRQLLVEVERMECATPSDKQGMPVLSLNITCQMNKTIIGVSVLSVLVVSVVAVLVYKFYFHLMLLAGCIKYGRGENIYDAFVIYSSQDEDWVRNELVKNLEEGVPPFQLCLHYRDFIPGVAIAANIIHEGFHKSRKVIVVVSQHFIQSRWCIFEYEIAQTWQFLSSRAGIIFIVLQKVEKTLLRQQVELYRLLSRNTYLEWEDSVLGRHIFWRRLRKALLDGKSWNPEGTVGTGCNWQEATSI

[3] = Cytotoxicity against HEK-Blue hTLR4 cells incubated for 24 hrs by CCK8 assay; assay type: toxicity, cell-based; conditions: human
[4] = molecular target: T1, Toll-like receptor 4; assay: Inhibition of TLR4 (unknown origin) homodimerization
[5] = Half-life in C57BL/6 mouse at 10 mg/kg, ip measured upto 24 hrs; assay type: ADME, organism-based; conditions: in vivo
[6] = Tmax in C57BL/6 mouse at 10 mg/kg, ip measured upto 24 hrs; assay type: ADME, organism-based; conditions: in vivo
[7] = Clearance in C57BL/6 mouse at 10 mg/kg, ip measured upto 24 hrs; assay type: ADME, organism-based; conditions: in vivo
[8] = Apparent volume of distribution in C57BL/6 mouse at 10 mg/kg, ip measured upto 24 hrs; assay type: ADME, organism-based; conditions: in vivo
[9] = AUC(0 to t) in C57BL/6 mouse at 10 mg/kg, ip measured upto 24 hrs; assay type: ADME, organism-based; conditions: in vivo
[10] = MRT(0 to t) in C57BL/6 mouse at 10 mg/kg, ip measured upto 24 hrs; assay type: ADME, organism-based; conditions: in vivo
[11] = Cmax in C57BL/6 mouse at 10 mg/kg, ip measured upto 24 hrs; assay type: ADME, organism-based; conditions: in vivo
[12] = test system: Mus musculus; assay: Antiinflammatory activity in LPS-induced C57BL/6 mouse sepsis model assessed as survival rate at 10 mg/kg, ip preadministered with compound for 1 hr followed by LPS stimulation and measured after 24 hrs; assay type: functional; conditions: time 25 hrs
[13] = test system: Mus musculus; assay: Antiinflammatory activity in LPS-induced C57BL/6 mouse sepsis model assessed as reduction in TNFalpha mRNA expression at 5 mg/kg, ip preadministered with compound for 1 hr followed by LPS stimulation and measured after 15 hrs by RT-qPCR analysis; assay type: functional, organism-based; conditions: time 16.0 hrs

Row | Compound | pIC50 [2] | IC50 at 24 h [3] | also measured
1 | CCOc1ccc(OCC(O)CN(C)Cc2c(C)nn(Cc3ccccc3Cl)c2C)cc1 (stereo not drawn) |  |  | pIC50 [1]: 4.32
2 | O=C(c1cnn2c(C(F)F)cc(-c3ccc(Cl)cn3)nc12)N1C[C@H]2CCCC[C@H]2C1 | 4.93 | > 50 µM | 
3 | CCOC(=O)C1=CCCC[C@H]1S(=O)(=O)Nc1ccc(F)cc1Cl [RESATORVID] | 7.33 and 7.22 | > 50 µM | 
4 | CC(C)(C)OC(=O)NC1CCN(C(=O)c2cnn3c(C(F)F)cc(-c4ccc(Cl)cc4)nc23)CC1 | 4.62 | 45.9 µM | 
5 | CN1CCN(C(=O)c2cnn3c(C(F)F)cc(-c4ccc(Cl)cc4)nc23)CC1 | 4.51 | > 50 µM | 
6 | Cc1ccc(-c2cc(C(F)F)n3ncc(C(=O)N4CCC5(CC4)OCCO5)c3n2)cc1 | 4.85 | > 50 µM | pIC50 [4]: 4.85
7 | NC1CCN(C(=O)c2cnn3c(C(F)F)cc(-c4ccc(Cl)cc4)nc23)CC1 | < 4.30 | > 50 µM | 
8 | CC(C)(C)OC(=O)N1CCN(C(=O)c2cnn3c(C(F)F)cc(-c4ccc(Cl)cc4)nc23)CC1 | < 4.30 | > 50 µM | 
9 | Cc1nn(Cc2ccccc2Cl)c(C)c1CN(C)CC(O)COc1ccc(Cl)cc1 (stereo not drawn) |  |  | pIC50 [1]: 4.73
10 | O=C(c1cnn2c(C(F)F)cc(-c3ccc(F)cc3)nc12)N1CCC2(CC1)OCCO2 | < 4.30 | > 50 µM | 
11 | FC(F)c1cc(-c2ccc(Cl)cc2)nc2c(C(=S)N3C[C@H]4CCCC[C@H]4C3)cnn12 | < 4.30 | > 50 µM | 
12 | O=C(Nc1ccc(S(=O)(=O)NC2CC2)cc1)c1cnn2c(C(F)F)cc(-c3ccc(Cl)cc3)nc12 | 4.98 | > 50 µM | 
13 | O=C(c1cnn2c(C(F)F)cc(-c3ccc(Cl)cc3)nc12)N1CCC2(CC1)OCCO2 | 5.31 | > 50 µM | 
14 | FC(F)c1cc(-c2ccc(Cl)cc2)nc2cc(C(=S)N3C[C@H]4CCCC[C@H]4C3)nn12 | < 4.30 | > 50 µM | 
15 | O=C(c1cnn2c(C(F)F)cc(C34CC5CC(CC(C5)C3)C4)nc12)N1C[C@H]2CCCC[C@H]2C1 | < 4.30 | > 50 µM | 
16 | COc1ccc(-c2cc(C(F)F)n3ncc(C(=O)N4CCC5(CC4)OCCO5)c3n2)cc1OC | < 4.30 | > 50 µM | 
17 | O=C(Oc1ccnc2c(Br)cccc12)c1cnn2c(C(F)F)cc(-c3ccc(Cl)cc3)nc12 | 4.81 | > 50 µM | 
18 | O=C(c1cnn2c(C(F)F)cc(-c3ccc(Cl)cc3)nc12)N1C[C@H]2CCCC[C@H]2C1 |  |  | t1/2 [5]: 2.74 h; Tmax [6]: 20 min; CL [7]: 6.42 L/h/kg; Vz [8]: 25.4 L/kg; AUCt [9]: 1560 µg·h/L; MRT last at 24 h [10]: 2.55 h; Cmax [11]: 760 µg/L; survival at 10 mg/kg [12]: 60%
19 | O=C(c1cnn2c1NC(c1ccc(Cl)cc1)CC2C(F)F)N1C[C@H]2CCCC[C@H]2C1 (stereo partly drawn) | < 4.30 | > 50 µM | 
20 | O=C(c1cnn2c(O)cc(-c3ccc(Cl)cc3)nc12)N1CCC2(CC1)OCCO2 | < 4.30 | > 50 µM | 
21 | Cc1ccc(-c2cc(C(F)(F)F)n3ncc(C(=O)N4CCC5(CC4)OCCO5)c3n2)cc1 | < 4.30 | > 50 µM | 
22 | CC(=O)N1CCN(C(=O)c2cnn3c(C(F)F)cc(-c4ccc(Cl)cc4)nc23)CC1 | < 4.30 | > 50 µM | 
23 | O=C(c1cnn2c(C(F)F)cc(-c3ccc(Cl)cc3)nc12)N1CCC2(CCCCC2)CC1 | < 4.30 | > 50 µM | 
24 | O=C(c1cnn2c(C(F)F)cc(-c3ccc(Br)cc3)nc12)N1CCC2(CC1)OCCO2 | < 4.30 | > 50 µM | 
25 | C[C@@H]1C[C@H]2[C@@H]3CCC4=CC(=O)C=C[C@]4(C)[C@@]3(F)[C@@H](O)C[C@]2(C)[C@@]1(O)C(=O)CO |  |  | Activity [13]: inactive
26 | O=C(c1cnn2c(C(F)(F)F)cc(-c3ccc(Cl)cc3)nc12)N1CCC2(CC1)OCCO2 | < 4.30 | > 50 µM | 
27 | O=C(c1cnn2c(C(F)F)cc(-c3ccc(Cl)cc3)nc12)N1CCSCC1 | < 4.30 | > 50 µM | 
